Measured values reported in PMC4308083, “Cytokine-Induced Loss of Glucocorticoid Function: Effect of Kinase Inhibitors, Long-Acting β2-Adrenoceptor Agonist and Glucocorticoid Receptor Ligands” (PLoS ONE, 2015).
One block for each molecule: values may come before it.

Legend:
2×GRE reporter = test: Modulation of dexamethasone/NR3C1 ligand-induced 2×GRE reporter activation (kinase inhibitors, TNF, formoterol) in BEAS-2B cells; type: cell-based, human; details: for Effect on dexamethasone-induced 2×GRE reporter activation (concentration-response): 30 min pre-treatment, 6 h (Fig. 3B, Fig. 4), JNK inhibitor VIII only at 30 μM, PKC inhibitors above 1 μM
Experimental: (§1) BEAS-2B cells stably transfected with a glucocorticoid response element (2×GRE) driven luciferase reporter plasmid, pGL3.neo.TATA.neo [23], were cultured in medium containing 0.25 mg/ml G-418 (Promega, Madison, WI). Cells were grown to confluence in 24 or 48 well plates and incubated overnight in serum-free media prior to experiments. Cells were harvested in reporter lysis buffer and luciferase assays performed according to the manufacturer’s instructions (Firefly Luciferase Assay Kit; Biotium; Hayward, CA) using a 20/20n luminometer (Promega).
Data (n = 7), expressed as a percentage of Dex activation, are plotted as means ± S.E. BEAS-2B 2×GRE cells were pre-treated for 30 min with the indicated concentrations of B. PS or JNK or C. JNK in the presence or absence of 10 μM PS, before addition of 10 ng/ml TNF. After 1 h, 10 μM Dex was added and cells harvested 6 h later for luciferase assay. […] D+T indicates Dex plus TNF treatment.
Data (n = 3–4), expressed as fold activation, are plotted as means ± S.E. D+T indicates Dex plus TNF treatment.
(§2) Cells were harvested after 6 h for luciferase assays. Data (n = 7), expressed as fold activation, are plotted as means ± S.E. Lines of best fit were added in panel B. Statistical analyses were performed by ANOVA with a Dunnett’s test comparing each NR3C1 ligand alone versus in the presence of TNF and/or Form. *, P<0.05; **, P<0.01; ***, P<0.001.

AKT1 phosphorylation = test: Western blot of AKT1 phosphorylation in BEAS-2B cells; type: cell-based; details: Homo sapiens, 30 min pre-treatment, TNF 10 ng/ml 30 min, western blot (S2 Fig.), read-out: EC50 for block of AKT1 phosphorylation
From the text: (§3) Cells were lysed in 1× Laemmli buffer supplemented with phosphatase inhibitors (Sigma-Aldrich) and 1× complete protease inhibitor cocktail (Roche; Indianapolis, IN), size fractionated on 12% acrylamide gels and subsequently electro-transferred onto Hybond enhanced chemiluminescent membranes (GE Healthcare; Waukesha, WI). Membranes were blocked in 5% milk in tris-buffered saline containing 1% tween 20 and probed with antibodies against phospho-jun proto-oncogene (pJUN; pc-Jun) (9164; Cell Signaling Technology; Danvers, MA), nuclear factor of kappa light polypeptide gene enhancer in B-cells inhibitor, alpha (NFKBIA; IκBα) (sc-371; Santa Cruz Biotechnology; Dallas, TX), phospho-NFKBIA (9246; Cell Signaling Technology), phospho-AKT1 (9271S; Cell Signaling Technology), AKT (9272S; Cell Signaling Technology) and GAPDH (4699–9555(ST); AbD Serotec; Raleigh, NC). After washing, membranes were incubated with horseradish peroxidase-conjugated anti-rabbit (111–035–003; Jackson ImmunoResearch Laboratories Inc; West Grove, PA) or anti-mouse immunoglobulin (115–035–003; Jackson ImmunoResearch Laboratories Inc). Detection was by enhanced chemiluminescence (Pierce ECL Western Blotting Substrate; Thermo Fisher Scientific Inc.; Rockford, IL) and visualization by autoradiography.
Cells were harvested after 30 min for western blotting and probed for phospho v-akt murine thymoma viral oncogene homolog 1 (pAKT1), AKT1 and glyceraldehyde 3-phosphate dehydrogenase (GAPDH). (PDF) Click here for additional data file.

[1] = tested on: CDKN1C, DUSP1, RGS2 and TSC22D3 mRNA in BEAS-2B cells; test: RT-PCR of glucocorticoid-inducible gene expression in BEAS-2B cells
[2] = tested on: NFKBIA (IκBα) phosphorylation; test: Western blot of TNF-induced NFKBIA phosphorylation in BEAS-2B cells; type: cell-based, human; details: 30 min pre-treatment, TNF 2 min, western blot (S1 Fig.), read-out: EC50 for reduction of TNF-induced NFKBIA phosphorylation
From the text: as §3, with “autoradiography. […]” for “autoradiography.”

[3] = molecular target: T1, glucocorticoid receptor (NR3C1) (Homo sapiens, UniProt P04150); test: 2×GRE luciferase reporter activation by NR3C1 ligands in BEAS-2B cells; type: cell-based; details: BEAS-2B 2×GRE reporter; for pEC50 (M), +TNF / E max (% Dex), +TNF: TNF 10 ng/ml pre-treatment 1 h; for pEC50 (M), +TNF / E max (% Dex), +TNF / pEC50 (M), Naive / E max (% Dex), Naive: 6 h; for E max (% Dex), +TNF / E max (% Dex), Naive: percent of 1 μM dexamethasone; for pEC50 (M), Naive / E max (% Dex), Naive: no TNF
T1 construct: BEAS-2B cells stably transfected with a glucocorticoid response element (2×GRE) driven luciferase reporter plasmid; endogenous in cells; host or cells: BEAS-2B human bronchial epithelial cells stably carrying a 2×GRE luciferase reporter
T1 sequence (P04150 1-777): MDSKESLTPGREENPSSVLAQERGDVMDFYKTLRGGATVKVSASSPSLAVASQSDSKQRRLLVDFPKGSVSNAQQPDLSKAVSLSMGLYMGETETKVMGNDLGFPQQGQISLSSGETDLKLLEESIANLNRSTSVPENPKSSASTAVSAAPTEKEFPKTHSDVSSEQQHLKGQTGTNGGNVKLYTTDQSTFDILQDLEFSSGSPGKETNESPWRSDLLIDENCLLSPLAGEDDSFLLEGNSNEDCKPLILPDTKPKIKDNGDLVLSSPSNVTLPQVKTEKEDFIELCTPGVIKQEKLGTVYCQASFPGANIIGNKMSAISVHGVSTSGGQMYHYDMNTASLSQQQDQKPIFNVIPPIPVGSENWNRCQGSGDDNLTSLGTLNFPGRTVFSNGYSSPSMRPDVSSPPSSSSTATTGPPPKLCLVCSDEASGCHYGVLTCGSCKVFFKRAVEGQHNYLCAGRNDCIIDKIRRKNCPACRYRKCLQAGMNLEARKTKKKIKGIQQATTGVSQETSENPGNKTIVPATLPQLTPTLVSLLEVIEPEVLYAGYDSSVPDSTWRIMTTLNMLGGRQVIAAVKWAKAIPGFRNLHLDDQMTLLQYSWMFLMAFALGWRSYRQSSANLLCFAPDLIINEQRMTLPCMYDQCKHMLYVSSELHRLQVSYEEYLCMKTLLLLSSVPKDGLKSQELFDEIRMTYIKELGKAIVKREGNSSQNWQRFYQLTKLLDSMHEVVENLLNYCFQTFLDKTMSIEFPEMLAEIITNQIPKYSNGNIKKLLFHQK
Experimental: as §1
Cells were harvested 6 h after NR3C1 ligand addition for luciferase assay.
as §2

[4] = tested on: TSC22D3 mRNA in primary HBE cells; test: RT-PCR of dexamethasone-inducible gene expression in primary human bronchial epithelial (HBE) cells; type: cell-based; details: TNF 10 ng/ml (at 1 h) or IL1B 1 ng/ml (at 18 h), 1 μM dexamethasone
[5] = tested on: TSC22D3 mRNA in primary ASM cells; test: RT-PCR of dexamethasone-inducible gene expression in primary human airway smooth muscle (ASM) cells; type: cell-based; details: TNF 10 ng/ml or IL1B 1 ng/ml, 1 μM dexamethasone, 6 h
[6] = 10 μM inhibitor 30 min pre-treatment, 6 h (Fig. 3A)

Molecule: COc1cccc(-c2cc(=O)c3ccccc3o2)c1N [PD098059]
Effect on dexamethasone-induced 2×GRE reporter activation (2×GRE reporter; [6]): significantly reduced

EC50 (AKT1 phosphorylation): ~70 nM
Molecule: Oc1cccc(-c2nc(N3CCOCC3)c3oc4ncccc4c3n2)c1 [PI103]
Effect on dexamethasone-induced 2×GRE reporter activation (concentration-response) (2×GRE reporter; dexamethasone): concentration-dependently reduced

EC50 [2]: ~1000 nM
EC50 (2×GRE reporter; read-out: EC50 for reversal of TNF-induced repression of 2×GRE reporter, TNF 10 ng/ml, dexamethasone, 6 h (Fig. 3B)): 600 nM
Molecule: O=C(Nc1cc(Cl)cc2c1[nH]c1cnccc12)c1cccnc1 [PS-1145]
Effect on DUSP1 mRNA expression with dexamethasone plus TNF plus formoterol ([1]; 10 μM PS-1145, 6 h (Fig. 7)): significantly enhanced
Effect on dexamethasone-induced mRNA expression of CDKN1C, DUSP1, RGS2, TSC22D3 in absence or presence of TNF ([1]; JNK inhibitor VIII 3 or 10 μM, PS-1145 10 μM, 6 h (Fig. 7)): no significant effect
2×GRE reporter induction restored in presence of TNF, % of that induced by dexamethasone (2×GRE reporter; 10 μM inhibitor 30 min pre-treatment, TNF 10 ng/ml, dexamethasone, 6 h (Fig. 3A)): 73%
Effect on dexamethasone-induced 2×GRE reporter activation (concentration-response) (2×GRE reporter; dexamethasone): no effect
TNF-induced repression reversed to % of the response to dexamethasone (2×GRE reporter; concentration-response, TNF 10 ng/ml, dexamethasone, 6 h (Fig. 3B), repression ~60% without inhibitor): 76%
Additional effect of 10 μM PS-1145 on 2×GRE reporter activity with JNK inhibitor VIII (2×GRE reporter; up to 10 μM JNK inhibitor VIII, TNF, dexamethasone (Fig. 3C)): no obvious additional effect

Agonist type on 2×GRE reporter relative to dexamethasone [3]: partial agonists
pEC50 (M), +TNF [3]: 7.3 ± 0.0 * M
E max (% Dex), +TNF [3]: 46.0 ± 0.8 % Dex
pEC50 (M), Naive [3]: 7.4 ± 0.0 M
E max (% Dex), Naive [3]: 74.9 ± 1.1 % Dex
Molecule: C[C@@H]1C[C@H]2[C@@H]3CCC4=CC(=O)C=C[C@]4(C)[C@@]3(F)[C@@H](O)C[C@]2(C)[C@H]1C(=O)CC#N [RU24858]

Molecule: Cn1cc(C2=C(c3cn(CCCSC(=N)N)c4ccccc34)C(=O)NC2=O)c2ccccc21 [Ro 31–8220]
Effect on dexamethasone-induced 2×GRE reporter activation (concentration-response) (2×GRE reporter; dexamethasone): reduced

Molecule: C[S+]([O-])c1ccc(-c2nc(-c3ccncc3)c(-c3ccc(F)cc3)[nH]2)cc1 (stereo not drawn) [SB203580]
Effect on dexamethasone-induced 2×GRE reporter activation (2×GRE reporter; [6]): no effect

Molecule: COC[C@H]1OC(=O)c2coc3c2[C@@]1(C)C1=C(C3=O)[C@@H]2CCC(=O)[C@@]2(C)C[C@H]1OC(C)=O [wortmannin]
EC50 (AKT1 phosphorylation): ~20 nM
Effect on dexamethasone-induced 2×GRE reporter activation (concentration-response) (2×GRE reporter; dexamethasone): concentration-dependently reduced

Agonist type on 2×GRE reporter relative to dexamethasone [3]: partial agonists
pEC50 (M), +TNF [3]: 7.0 ± 0.1 M
E max (% Dex), +TNF [3]: 40.7 ± 0.9 % Dex
pEC50 (M), Naive [3]: 7.1 ± 0.0 M
E max (% Dex), Naive [3]: 77.2 ± 1.0 % Dex
Molecule: GSK9027

Molecule: IL1B: pro-inflammatory cytokine interleukin-1β (R&D systems), used at 1 ng/ml
Maximal repression of dexamethasone-induced TSC22D3 expression [4]: 62%
Repression of dexamethasone-induced TSC22D3 expression [5]: 43%
